# From patent publication US20070254955A1, “Nail softener for use in deformed-nail corrective treatment or nail-structure modification, enclosure for external chemicals and method of correcting deformed nail” (priority 2003, published 2007)
# Experiments:
# ingrown nail [1] = test: Deformed-nail corrective treatment with nail softener (First Example, sufficiently grown ingrown nail); type: in vivo; conditions: nail repositioned by fingertips, immobilized with resin for one hour; FIG. 4
# Description: With reference to the drawings, a deformed-nail correcting method using the nail softener according to one embodiment of the present invention will be described below. The cases of ingrown nails include one case of a sufficiently grown nail, and another case of a deep nail. While the deformed-nail correcting method using the nail softener of the present invention can be applied to both the cases, the first example will be described in conjunction with one case where the method is applied to a sufficiently grown nail. An emulsifying agent was first added to ammonium thioglycolate serving as a reducing agent to prepare a 5% (weight %) ammonium thioglycolate mail softener in the form of cream or paste. […] The number of the small through-hole may be changed according to the state of the nail, and may be, for example, two. The prepared nail softener was applied onto the entire surface of the nail at a thickness of about 5 mm, and left the nail untouched. After 25 minutes from the application of the nail softener to the nail, the state of the nail was checked. […] Thus, the nail softener was washed away and removed from the nail using a hot water. […] In order to maintain the corrected position, a resin 12 was attached onto the upper surface of the nail to close the small through-holes 10 formed in the front region of the nail (see FIG. 3). […]
# ingrown nail [2] = test: Ingrown-nail correction with nail softener in enclosure plus superelastic alloy wire (Second Example, deep nail); type: in vivo; conditions: reposition by action of superelastic alloy wire
# Description: With reference to the drawings, an ingrown-nail correcting method using the enclosure according to one embodiment of the present invention will be described below. As mentioned above, the cases of ingrown nails include one case of a sufficiently grown nail, and another case of a deep nail. While the deformed-nail correcting method using the enclosure of the present invention can be applied to both the cases, the second example will be described in conjunction with one case where the method is applied to a deep nail. An emulsifying agent was first added to ammonium thioglycolate serving as a reducing agent to prepare a 5% (weight %) ammonium thioglycolate mail softener in the form of cream or paste. […] The through-hole P1c was formed to fix one of the ends of a superelastic alloy wire w (see the aforementioned Patent Publication). Further, four small holes P2 serving as anchoring holes of resin r for fixing the other end of the wire were formed in the other lateral side region n2 of the nail. One of the ends of the wire w is inserted into the central through-hole p1c. Then, the wire w was folded toward the other side region n2 or a flat region, and brought into close contact with the surface of the nail. A resin r was applied onto the curved region n1 to fix one end of the wire w. An ultra-fast cure type autopolymerizing resin (GC Unifast II: trade name of GC Co.) was used as the resin. […]
SMILES,result of the corrective treatment (correction of the deformed nail) (ingrown nail [1]),result of the corrective treatment (reposition of the ingrown nail) (ingrown nail [2])
O=C(O)CS [thioglycolic acid],substantially the same result,substantially the same result
N[C@@H](CS)C(=O)O [cysteine],substantially the same result,substantially the same result
